Each molecule was assayed against human activated kallikrein enzyme (Homo sapiens, UniProt P03952) (assay: Plasma kallikrein inhibition, fluorogenic PFR-AMC substrate, 500 pM activated kallikrein format). Details: 500 pM activated kallikrein, 300 uM PFR-AMC, 30 min preincubation, 10 min reaction; read-out: Primary Dose Response Assay: Average EC50.
Sequence of human activated kallikrein enzyme (P03952 391-638 limits assumed): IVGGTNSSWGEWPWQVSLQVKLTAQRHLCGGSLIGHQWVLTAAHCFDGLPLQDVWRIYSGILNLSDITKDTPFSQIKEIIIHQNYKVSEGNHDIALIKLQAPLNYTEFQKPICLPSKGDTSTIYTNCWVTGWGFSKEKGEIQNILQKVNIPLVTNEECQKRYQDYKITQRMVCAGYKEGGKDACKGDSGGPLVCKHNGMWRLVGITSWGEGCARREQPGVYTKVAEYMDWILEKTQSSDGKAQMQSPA
Sequence of human activated kallikrein enzyme (P03952 20-390 partner limits assumed): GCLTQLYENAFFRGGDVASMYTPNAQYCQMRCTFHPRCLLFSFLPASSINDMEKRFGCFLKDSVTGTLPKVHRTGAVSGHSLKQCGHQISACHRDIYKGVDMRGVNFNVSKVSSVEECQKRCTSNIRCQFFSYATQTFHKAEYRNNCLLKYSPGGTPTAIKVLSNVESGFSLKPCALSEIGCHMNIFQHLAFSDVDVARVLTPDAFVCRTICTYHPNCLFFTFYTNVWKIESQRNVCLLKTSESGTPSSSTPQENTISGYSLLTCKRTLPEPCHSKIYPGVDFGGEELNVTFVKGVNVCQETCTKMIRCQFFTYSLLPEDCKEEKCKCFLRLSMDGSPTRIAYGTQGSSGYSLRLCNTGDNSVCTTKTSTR
Format: biochemical
Protocol: Compounds were evaluated for inhibition of the human activated kallikrein enzyme in two formats of an assay employing a fluorogenic peptide substrate. In one assay format, the concentrations of reagents were as follows: 20 mM Tris pH 7.5, 1 mM EDTA, 150 mM sodium chloride, 0.1% PEG-400, 0.1% Triton X-100, 500 pM activated kallikrein enzyme, 300 uM Pro-Phe-Arg-7-amido-4-methylcoumarin (PFR-AMC) substrate. Prior to reaction initiation with substrate, enzyme and inhibitors were preincubated for 30 min at room temperature. After initiation with substrate, reactions were incubated for 10 min at room temperature and fluorescence emission at 460 nm from 380 nm excitation measured with a microplate reader. In another assay format, the concentrations of reagents were as follows: 20 mM Tris pH 7.5, 1 mM EDTA, 150 mM sodium chloride, 0.1% PEG-400, 0.1% Triton X-100, 5 pM activated kallikrein enzyme, 300 uM PFR-AMC substrate. Prior to reaction initiation with substrate, enzyme and inhibitors were preincubated for 30 min at room temperature. After initiation with substrate, reactions were incubated for 18 hr at room temperature and fluorescence emission at 460 nm from 380 nm excitation measured with a microplate reader.
Table 49 provides the results of the assay in the format with 500 pM activated kallikrein assay. For the compounds listed in Table 49, the EC50 values are reported according to the following ranges: A≤1.0 nM; 1.0 nM<B≤10 nM; 10 nM<C≤100 nM; 100 nM<D≤1000 nM; 1000 nM<E≤6000 nM; 6000 nM<F.
Table 51 provides comparative plasma kallikrein inhibition potency in the assay format with 500 pM activated kallikrein assay (described in detail in a preceding example). For the compounds listed in Table 51, the EC50 values are reported according to the following ranges: A≤1.0 nM; 1.0 nM<B≤10 nM; 10 nM<C≤100 nM; 100 nM<D≤1000 nM; 1000 nM<E≤6000 nM; 6000 nM<F.
COc1cc(NC(=O)[C@H]2C[C@@H]2c2nccc(C)n2)nc(OCc2cn3cc(C4CC4)cc(N4CC(=O)N(C)C4=O)c3n2)c1 [Example 38, (1S,2S)-N-(6-((6-cyclopropyl-8-(3-methyl-2,4-dioxoimidazolidin-1-yl)imidazo[1,2-α]pyridin-2-yl)methoxy)-4-methoxypyridin-2-yl)-2-(4-methylpyrimidin-2-yl)cyclopropane-1-carboxamide] was tested, and the EC50 was 1 to 10 nM.
COc1ccnc([C@H]2C[C@@H]2C(=O)Nc2cc(NCc3cn4cc(C5CC5)ccc4n3)ccn2)c1 (racemic) [Example I-214, rac-(1S*,2S*)-N-(4-(((6-cyclopropylimidazo[1,2-a]pyridin-2-yl)methyl)amino)pyridin-2-yl)-2-(4-methoxypyridin-2-yl)cyclopropane-1-carboxamide] gave an EC50 of 1 to 10 nM.
Molecule COc1ccc(CN2C(=O)CN(c3cc(C4CC4)cn4cc(CNc5ccnc(NC(=O)[C@H]6C[C@@H]6c6cccc(Cl)c6)c5)nc34)C2=O)cc1 [Example I-22, (1S,2S)-2-(3-chlorophenyl)-N-(4-(((6-cyclopropyl-8-(3-(4-methoxybenzyl)-2,4-dioxoimidazolidin-1-yl)imidazo[1,2-a]pyridin-2-yl)methyl)amino)pyridin-2-yl)cyclopropane-1-carboxamide] has an EC50 of 10 to 100 nM.
Work on C#Cc1cccc([C@H]2C[C@@H]2C(=O)Nc2cc(N3C[C@@H](O)C[C@@H]3c3cn4cc(C5CC5)ccc4n3)ncn2)c1 [Example 486, (1S,2S)-N-(6-((2R,4S)-2-(6-cyclopropylimidazo[1,2-a]pyridin-2-yl)-4-hydroxypyrrolidin-1-yl)pyrimidin-4-yl)-2-(3-ethynylphenyl)cyclopropane-1-carboxamide] yielded an EC50 of 1 to 10 nM.
In the case of O=C(Nc1cc(NCc2cn3cc(C4CC4)ccc3n2)ncn1)[C@H]1C[C@@H]1c1cccc(C2CC2)c1 (racemic) [Example 351, rac-(1S*,2S*)—N-(6-(((6-cyclopropylimidazo[1,2-a]pyridin-2-yl)methyl)amino)pyrimidin-4-yl)-2-(3-cyclopropylphenyl)cyclopropane-1-carboxamide], the EC50 is reported as > 6000 nM.
In the case of O=C(Nc1cc(N2CC[C@@H](O)[C@@H]2c2cn3cc(C4CC4)ccc3n2)ncn1)[C@H]1C[C@@H]1c1cccc(Cl)c1 [Example 485, (1S,2S)-2-(3-chlorophenyl)-N-(6-((2S,3R)-2-(6-cyclopropylimidazo[1,2-a]pyridin-2-yl)-3-hydroxypyrrolidin-1-yl)pyrimidin-4-yl)cyclopropane-1-carboxamide], the EC50 is reported as 1000 to 6000 nM.
O=C(Nc1cc(NCc2cn3cc(C4CC4)ccc3n2)ncn1)[C@H]1C[C@@H]1c1cc(Cl)ccc1O (racemic) [Example 313, rac-(1S*,2S*)-2-(5-chloro-2-hydroxyphenyl)-N-(6-(((6-cyclopropylimidazo[1,2-a]pyridin-2-yl)methyl)amino)pyrimidin-4-yl)cyclopropane-1-carboxamide] showed an EC50 of 1 to 10 nM.
Cc1ccnc([C@H]2C[C@@H]2C(=O)Nc2cc(NC(C)c3cn4cc(C5CC5)cc(N5CC(=O)N(CCOCc6ccccc6)C5=O)c4n3)nc(C3CC3)n2)n1 (stereo partly drawn) [Example 409, (1S,2S)-N-(6-((1-(8-(3-(2-(benzyloxy)ethyl)-2,4-dioxoimidazolidin-1-yl)-6-cyclopropylimidazo[1,2-a]pyridin-2-yl)ethyl)amino)-2-cyclopropylpyrimidin-4-yl)-2-(4-methylpyrimidin-2-yl)cyclopropane-1-carboxamide] showed an EC50 of 10 to 100 nM.
O=C(Nc1cc(NCc2cn3cc(C4CC4)ccc3n2)ccn1)[C@H]1C[C@@H]1c1n[nH]c2ccc(Cl)cc12 (racemic) [Example I-225, rac-(1S*,2S*)-2-(5-chloro-1H-indazol-3-yl)-N-(4-(((6-cyclopropylimidazo[1,2-a]pyridin-2-yl)methyl)amino)pyridin-2-yl)cyclopropane-1-carboxamide] was tested, and the EC50 was > 6000 nM.
In the case of C[C@H]1[C@H](C(=O)Nc2cc(NCc3cn4cc(C5CC5)ccc4n3)ncn2)[C@H]1c1cccc(Cl)c1 (single isomer, unassigned) [Example 505, (1R*,2R*,3S*)-2-(3-chlorophenyl)-N-(6-(((6-cyclopropylimidazo[1,2-a]pyridin-2-yl)methyl)amino)pyrimidin-4-yl)-3-methylcyclopropane-1-carboxamide], the EC50 is reported as 10 to 100 nM.
In the case of O=C(Nc1cc(NCc2cn3cc(C4CC4)ccc3n2)ccn1)[C@@H]1C[C@H]1c1cccc(Cl)c1 (racemic) [Example 115, rac-(1S*,2S*)-2-(3-chlorophenyl)-N-(4-(((6-cyclopropylimidazo[1,2-a]pyridin-2-yl)methyl)amino)pyridin-2-yl)cyclopropane-1-carboxamide], the EC50 is reported as 1 to 10 nM.
Work on Cc1ccnc([C@H]2C[C@@H]2C(=O)Nc2cc(O[C@@H](C)c3cn4cc(C5CC5)cc(N5CC(=O)N(C)C5=O)c4n3)cnn2)n1 (single isomer, unassigned) [Example 41] yielded an EC50 of 10 to 100 nM.
With O=C(Nc1cc(NCc2cn3cc(C4CC4)cc(N4C[C@H](O)CC4=O)c3n2)ncn1)[C@H]1C[C@@H]1c1cccc(Cl)c1 (relative stereo) [Example 65, rac-(1S*,2S*)-2-(3-chlorophenyl)-N-(6-(((6-cyclopropyl-8-((R)-4-hydroxy-2-oxopyrrolidin-1-yl)imidazo[1,2-a]pyridin-2-yl)methyl)amino)pyrimidin-4-yl)cyclopropane-1-carboxamide] the EC50 was 1 to 10 nM.
For Cc1ccnc([C@H]2C[C@@H]2C(=O)Nc2cc(N[C@H](C)c3cn4cc(C5CC5)cc(N5CC6(CN(C)C6)N(C)C5=O)c4n3)ncn2)n1 [Example I-245, (1S,2S)-N-(6-(((R)-1-(6-cyclopropyl-8-(2,5-dimethyl-6-oxo-2,5,7-triazaspiro[3.4]octan-7-yl)imidazo[1,2-a]pyridin-2-yl)ethyl)amino)pyrimidin-4-yl)-2-(4-methylpyrimidin-2-yl)cyclopropane-1-carboxamide], the EC50 was < 1 nM.
With Cc1ccnc([C@H]2C[C@@H]2C(=O)Nc2cc(N[C@H](C)c3cn4cc(C5CC5)cc(N5CC6(COC6)N(C)C5=O)c4n3)nc(C)n2)n1 [Example 435, (1S,2S)-N-(6-(((R)-1-(6-cyclopropyl-8-(5-methyl-6-oxo-2-oxa-5,7-diazaspiro[3.4]octan-7-yl)imidazo[1,2-a]pyridin-2-yl)ethyl)amino)-2-methylpyrimidin-4-yl)-2-(4-methylpyrimidin-2-yl)cyclopropane-1-carboxamide] the EC50 was < 1 nM.
In the case of O=C(Nc1cc(NCc2cn3cc(C4CC4)cc(N4CCN5CC(F)(F)CC5C4)c3n2)ccn1)[C@H]1C[C@@H]1c1cccc(Cl)c1 (stereo partly drawn) [Example I-230, (1S,2S)-2-(3-chlorophenyl)-N-(4-(((6-cyclopropyl-8-(7,7-difluorohexahydropyrrolo[1,2-a]pyrazin-2(1H)-yl)imidazo[1,2-a]pyridin-2-yl)methyl)amino)pyridin-2-yl)cyclopropane-1-carboxamide], the EC50 is reported as 1 to 10 nM.
With N#Cc1ccc(Cl)cc1[C@@H]1C[C@H]1C(=O)Nc1cc(NCc2cn3cc(C4CC4)ccc3n2)cnn1 (racemic) [Example 102, rac-(1S*,2S*)-2-(5-chloro-2-cyanophenyl)-N-(5-(((6-cyclopropylimidazo[1,2-a]pyridin-2-yl)methyl)amino)pyridazin-3-yl)cyclopropane-1-carboxamide] the EC50 was 1 to 10 nM.
Molecule CC(C)c1ccc2nc(CNc3cc(NC(=O)[C@H]4C[C@@H]4c4cccc(Cl)c4)ncn3)cn2c1 [Example I-160, (1S,2S)-2-(3-chlorophenyl)-N-(6-(((6-isopropylimidazo[1,2-a]pyridin-2-yl)methyl)amino)pyrimidin-4-yl)cyclopropane-1-carboxamide] has an EC50 of 10 to 100 nM.
Cc1ccnc([C@H]2C[C@@H]2C(=O)Nc2cc(OCc3cn4cc(C5CC5)cc(N5CC(=O)N(C)C5=O)c4n3)c(CO)nn2)n1 [Example 677, (1S,2S)—N-(5-((6-cyclopropyl-8-(3-methyl-2,4-dioxoimidazolidin-1-yl)imidazo[1,2-a]pyridin-2-yl)methoxy)-6-(hydroxymethyl)pyridazin-3-yl)-2-(4-methylpyrimidin-2-yl)cyclopropane-1-carboxamide] was tested, and the EC50 was < 1 nM.
For CC(=O)OC(Cc1cn2cc(C3CC3)cc(N3CC(=O)N(C)C3=O)c2n1)c1cc(NC(=O)[C@H]2C[C@@H]2c2nccc(C)n2)nc(C)n1 (stereo partly drawn) [Example 673, 2-(6-cyclopropyl-8-(3-methyl-2,4-dioxoimidazolidin-1-yl)imidazo[1,2-a]pyridin-2-yl)-1-(2-methyl-6-((1S,2S)-2-(4-methylpyrimidin-2-yl)cyclopropane-1-carboxamido)pyrimidin-4-yl)ethyl acetate], the EC50 was 100 to 1000 nM.
Work on O=C(Nc1cncc(NCc2cn3cc(C4CC4)ccc3n2)n1)[C@H]1C[C@@H]1c1cccc(Cl)c1 (racemic) [Example 345, (rac-(1S*,2S*))-2-(3-chlorophenyl)-N-(6-(((6-cyclopropylimidazo[1,2-a]pyridin-2-yl)methyl)amino)pyrazin-2-yl)cyclopropane-1-carboxamide] yielded an EC50 of 10 to 100 nM.

Same assay, conditions: comparative compounds, 500 pM activated kallikrein format; read-out: Primary Dose Response Assay: Average EC50
Molecule O=C(NCCc1cccc(Br)c1)c1cnn(Cc2cn3cc(C4CC4)ccc3n2)c1 has an EC50 of 1000 to 6000 nM.
